Results from patent US5981499A, “Lesion-directed antibiotics in dry dosage forms for the treatment of shallow ulcers of the oral mucosa” (Atlantic Biomed Corporation, priority 1998, dated 1999).
Where a name gives a salt, the structure may show the parent alone. Read-outs that look alike come from different tables or passages of the source.

Experiments:
aphthous ulcers = details: background, cited from earlier work; for efficacy of prior treatment: aphthous ulcers/stomatitis
[1] = Concentration at the ulcer assuming the troche dissolves in 0.1 ml of saliva; details: assuming troche dissolved in 0.1 ml saliva
Description: Application of the penicillin/magnesium stearate troches in the aforementioned manner created a supratherapeutic concentration of penicillin on the raw surface of the aphthous ulcer. Assuming that the troche is dissolved in 0.1 ml of saliva locally at the ulcer, the initial concentration of penicillin would reach up to 500 mg/ml, and that of magnesium stearate 10 mg/ml. Under the influence of this extraordinarily high concentration of penicillin G or penicillin V, most microorganisms of the normal flora cannot survive or continue to multiply, permitting tissue regeneration processes to occur under the protective barrier coating formed by the magnesium stearate.
When the oxytetracycline hydrochloride/magnesium stearate troches are applied in the manner described in Example 1, extraordinarily high concentrations of antibiotic were released on the raw surface of the treated ulcers. Assuming that the troche is dissolved in 0.1 ml of saliva, the peak concentration of oxytetracycline would be between about 400-800 mg/ml locally at the site of the ulcer, and that of magnesium stearate 10 mg/ml.

[2] = Local peak and one-hour trough antibiotic concentration in loculated saliva at the site of the troche (microbiological dilution assay); type: in vivo, human; details: 50 mg troche; for local trough concentration of penicillin in saliva: end of one-hour duration
[3] = system: Staphylococcus aureus (ATCC 29213); assay: Minimum inhibitory concentration against the standard strain by serial two-fold dilution in nutrient broth; type: cell-based
Description: For determination of the peak concentration, 1 ml of the bacteria-free filtrate was further diluted with 9 ml of nutrient broth to achieve a 1:10,000 dilution of the saliva. Then a serial two-fold dilution was made of this 1:10,000 diluted saliva sample with an equal volume of nutrient broth in a roll of test tubes to obtain a series of 1 ml aliquots of nutrient broth in which the saliva was diluted to 20,000, 40,000, 80,000, 160,000, 320,000, 640,000, 1,280,000 and 2,560,000 folds respectively. […] Thus the final dilutions of the saliva sample were in the range of 40,000 to 5,120,000 folds.
As control standards, a series of test tubes containing 1 ml of nutrient broth with varying concentrations of penicillin G potassium salt ranging from 0.1 units to 10 units/ml were similarly mixed with an equal volume of nutrient broth freshly inoculated with the standard tubes of Staphylococcus aureus. Both the test and control standard tubes were incubated at 37° C. for 18 hours. Among the test tubes showing no gross evidence of bacterial growth, the one containing the highest dilution of saliva and the one containing the least amount of penicillin G were considered as having the identical concentration of penicillin, i.e. the MIC of the staphylococcus aureus.

[4] = system: Patients with aphthous ulcers; assay: Topical treatment of patients with aphthous ulcers; type: in vivo, human
Description: Patients with aphthous ulcers were advised to brush their teeth to rid them of food residues, and to rinse their mouths with water prior to initiating treatment.
One penicillin/magnesium stearate troche was placed in the patients' mouths directly over the ulcerated lesion. The troche was dissolved or disintegrated in a minimum amount of saliva directly over the ulcer in no more than 15 minutes, preferably in about 8 to about 12 minutes. The patients were advised to keep the ingredients of the disintegrated troche at the site of the lesion as long as possible. Food and beverages were avoided for one hour after each treatment. If multiple aphthous ulcers were present, one troche was required for the treatment of each ulcer. The topical treatments were conducted 4 times daily, for example, after breakfast, after lunch, after dinner and before bed time for no more than 4 days. […] The burning sensation lessened with subsequent applications.
For instance, the first sign of healing is usually the fading of the hyperemic zone at the periphery of the ulcer and the lessening of edema at the base of the ulcer. The membrane covering the ulcer becomes thinner, more translucent, more pearly white instead of a grayish-yellowish white prior to the application and contract with the troche. […]

[5] = system: Staphylococcus aureus (ATCC 29213); details: ATCC 29213, known range; cited from earlier work
Gram-negative bacilli = details: cited from earlier work
[6] = single intravenous injection of penicillin G, usually 500 mg; cited from earlier work

## O=S(=O)([O-])[O-].[Zn+2] [zinc sulfate]
Aphthous ulcers
  efficacy of prior treatment: responded

## aluminum subsalt of sucrose-8-sulfate [sucralfate]
Aphthous ulcers
  efficacy of prior treatment: responded

## CCCCCCCCCCCCCCCCCC(=O)O [magnesium stearate]
[1]
  concentration of magnesium stearate at the ulcer: 10000 µg/mL

## O=C1CCC(N2C(=O)c3ccccc3C2=O)C(=O)N1 (stereo not shown) [Thalidomide]
Aphthous ulcers
  efficacy of prior treatment: effective in some HIV-infected patients
  adverse reactions of prior treatment: teratogenic

## CN(C)[C@@H]1C(=O)C(C(N)=O)=C(O)[C@@]2(O)C(=O)C3=C(O)c4c(O)cccc4[C@@](C)(O)[C@H]3[C@H](O)[C@@H]12 [oxytetracycline hydrochloride, Oxytetracycline hydrochloride]
[2]; two subjects, 60 min
  one-hour trough concentration of oxytetracycline hydrochloride in saliva: 8 mg/mL
[2]; human, in vivo, topical or ocular, 50 mg, two subjects, read-out: initial peak concentration of oxytetracycline hydrochloride in saliva
  Cmax: 400000 µg/mL
[2]; human, in vivo, topical or ocular, two subjects, read-out: one-hour trough concentration of oxytetracycline hydrochloride in saliva
  concentration at 1 h: 8000 µg/mL
[3]; Staphylococcus aureus, ATCC29213, ATCC 29213, read-out: sensitivity to oxytetracycline hydrochloride, MIC
  MIC: 1 µg/mL
[1]
  initial/peak concentration of antibiotic at the ulcer: 400 to 800 mg/mL

## CC1(C)S[C@@H]2[C@H](NC(=O)Cc3ccccc3)C(=O)N2[C@H]1C(=O)O [penicillin]
[4]; 4 days of penicillin medication
  adverse reactions of stomatitis or discoloration of the tongue: no observed adverse reactions
[4]; after 4 days
  status of ulcer after 4 days of medication: only remnants of a thin pearly whitish membrane remain, if any, covering an incompletely re-epithelialized newly healed ulcer
[5]
  known minimum inhibitory concentration (MIC) of the standard strain: 0.25-2 units of penicillin/ml
Aphthous ulcers
  efficacy of prior treatment: ineffective
  adverse reactions of prior treatment: likely to produce hypersensitivity

## CC1(C)S[C@@H]2[C@H](NC(=O)Cc3ccccc3)C(=O)N2[C@H]1C(=O)O [penicillin G]
Gram-negative bacilli; 740 mcg/ml as cut-off MIC
  susceptibility of many Gram-negative bacilli (Salmonella, Shigella, most Escherichia coli, all Proteus mirabilis, most Bacteroides strains): sensitive
Gram-negative bacilli; at 16 mcg/ml
  susceptibility of Gram-negative bacilli: resistant
[2]
  local trough concentration of penicillin in saliva: 4,000-64,000 units/ml
[2]; 60 min
  local trough concentration of penicillin in saliva: 2.5 to 40 mg/mL
[2]; human, in vivo, topical or ocular, at complete dissolution, read-out: initial peak local concentration of penicillin G in saliva
  Cmax: 500000 µg/mL
[6]
  average peak blood level: about 26 units/ml
[3]; three experiments, 37° C., 18 hours
  MIC of penicillin G for the standard strain of Staphylococcus aureus: 1 unit/ml
